The text below walks through data of ChEMBL document CHEMBL4651402, “Screening of ~5500 FDA-approved drugs and clinical candidates for anti-SARS-CoV-2 activity” (2021).

The test system of one experiment is SARS-CoV-2. Nature of the experiment: microbe, parasite or virus in culture. The settings on record: Severe acute respiratory syndrome coronavirus 2, Vero C1008, 48 h.
Turning to `COc1cc2nccc(Oc3ccc(NC(=O)c4cn(C(C)C)c(=O)n(-c5ccc(F)cc5)c4=O)cc3F)c2cc1OC`, the IC50 is above 20 µM.

For `NS(=O)(=O)Cc1noc2ccccc12` [ZONISAMIDE], the IC50 is above 20 µM.

Consider `NS(=O)(=O)c1cc2c(cc1Cl)NC(c1ccccc1)NC2=O` (stereo unspecified) [FENQUIZONE], for which the IC50 was above 20 µM.

Turning to `CC(=O)OCC(=O)[C@@]12N=C(C)O[C@@H]1C[C@H]1[C@@H]3CCC4=CC(=O)C=C[C@]4(C)[C@H]3[C@@H](O)C[C@@]12C` [DEFLAZACORT], the IC50 is above 20 µM.

The molecule `CCc1oc2ccccc2c1C(=O)c1cc(I)c(O)c(I)c1` [BENZIODARONE] had an IC50 above 20 µM.

`CN(C)CCCCCCN(C)C` showed an IC50 above 20 µM.

Molecule `CCOC(=O)Nc1ccc(SC[C@H]2CO[C@](Cn3ccnc3)(c3ccc(OC)cc3)O2)cc1` displayed an IC50 above 20 µM.

`Cc1cccc(Oc2cnc(=O)[nH]c2)c1` [TOLIMIDONE] showed an IC50 above 20 µM.

Molecule `CC(C)[C@@]1(NC(=O)[C@@H]2C[C@@H]3c4cccc5[nH]cc(c45)C[C@H]3N(C)C2)O[C@@]2(O)[C@@H]3CCCN3C(=O)[C@H](C)N2C1=O` returned an IC50 above 20 µM.

Regarding `CC1=CC(=O)c2ccccc2C1=O` [MENADIONE], the IC50 is above 20 µM.

For the molecule `COCCOc1cnc(NS(=O)(=O)c2ccccc2)nc1` [GLYMIDINE], the IC50 was above 20 µM.

The molecule `COC(=O)[C@@H]1[C@H]2C[C@H]3c4[nH]c5ccccc5c4CCN3C[C@@H]2CC[C@@H]1O` [YOHIMBINE] returned an IC50 above 20 µM.

As for `CNC(=O)[C@H]1O[C@@H](n2cnc3c(NCc4cccc(I)c4)ncnc32)[C@@H](O)[C@H]1O`, the IC50 was above 20 µM.

The molecule `CC(=O)Oc1cc(C(C)C)c(OCCN(C)C)cc1C` [MOXISYLYTE] yielded an IC50 above 20 µM.

The molecule `CC(=O)OC(Cc1ccccc1)(c1ccccc1)C(C)CN1CCCC1` (stereo unspecified) [PYRROLIPHENE] returned an IC50 above 20 µM.

The molecule `CCCC(CCC)C(=O)O` [VALPROIC ACID] had an IC50 above 20 µM.

Molecule `COc1cccc(CCc2ccccc2OCC(CN(C)C)OC(=O)CCC(=O)O)c1` (stereo unspecified) [SARPOGRELATE] registered an IC50 above 20 µM.

In the case of `O=C1C(Cl)=C(Cl)C(=O)C(Cl)=C1Cl` [CHLORANIL], the IC50 is above 20 µM.

In the case of `CNC(=O)NC(O)C(Cl)(Cl)Cl` (stereo unspecified) [MECLORALUREA], the IC50 is above 20 µM.

On to `Cn1c(=O)c2c(ncn2CCO)n(C)c1=O` [ETOFYLLINE], for which the IC50 was above 20 µM.

As to `Nc1ccc(S(=O)(=O)Nc2ccccn2)cc1` [SULFAPYRIDINE], the IC50 is above 20 µM.

In the case of `NC1CCN(c2c(F)cc3c(=O)c(C(=O)O)cn(C4CC4)c3c2Cl)C1` (stereo unspecified) [CLINAFLOXACIN], the IC50 is above 20 µM.

`c1cncc(C2=NCCC2)c1` [MYOSMINE] registered an IC50 above 20 µM.

With `COc1cc(OC)c2ccc(=O)oc2c1` [CITROPTEN], the IC50 was above 20 µM.

For the molecule `NCCc1c[nH]c2ccc(O)cc12` [SEROTONIN], the IC50 is above 20 µM.

Regarding `CCN[C@H]1CN(CCCOC)S(=O)(=O)c2sc(S(N)(=O)=O)cc21` [BRINZOLAMIDE], the IC50 was above 20 µM.

`CCNC(=O)C[C@H]1N=C(c2ccc(Cl)cc2)c2cc(OC)ccc2-n2c(C)nnc21`: the IC50 was above 20 µM.

Molecule `COP(=O)(c1cc(C)cc(/C=C/C#N)c1)c1c(C(N)=O)[nH]c2ccc(Cl)cc12` (stereo unspecified) had an IC50 above 20 µM.

Take `O=c1[nH]c(=O)n(C2CCCO2)cc1F` (stereo unspecified) [TEGAFUR]: the IC50 was above 20 µM.

Regarding `COCc1cccc(C[C@H](O)/C=C/[C@H]2[C@H](O)CC(=O)[C@@H]2CCSCCCC(=O)OC)c1` [RIVENPROST], the IC50 was above 20 µM.

In the case of `COC(=O)c1cnc2n1CCc1ccccc1C2=C1CCN(CCc2ccc(OCc3ccc4ccccc4n3)cc2)CC1`, the IC50 is above 20 µM.

As for `CCC1(C)CC(=O)NC1=O` (stereo unspecified) [ETHOSUXIMIDE], the IC50 was above 20 µM.

For `Cc1cc(O)c2c(c1)C(=O)c1cc(O)cc(O)c1C2=O` [EMODIN], the IC50 is above 20 µM.

The same experiment, now with this note: Severe acute respiratory syndrome coronavirus 2, Vero C1008, 48 h, read-out: pIC50 (converted).
As for `COc1cc2nccc(Oc3ccc(NC(=O)c4cn(C(C)C)c(=O)n(-c5ccc(F)cc5)c4=O)cc3F)c2cc1OC`, the IC50 is above 20 µM.

As to `NS(=O)(=O)Cc1noc2ccccc12` [ZONISAMIDE], the IC50 is above 20 µM.

`NS(=O)(=O)c1cc2c(cc1Cl)NC(c1ccccc1)NC2=O` (stereo unspecified) [FENQUIZONE]: the IC50 is above 20 µM.

As for `CC(=O)OCC(=O)[C@@]12N=C(C)O[C@@H]1C[C@H]1[C@@H]3CCC4=CC(=O)C=C[C@]4(C)[C@H]3[C@@H](O)C[C@@]12C` [DEFLAZACORT], the IC50 is above 20 µM.

Regarding `CCc1oc2ccccc2c1C(=O)c1cc(I)c(O)c(I)c1` [BENZIODARONE], the IC50 is above 20 µM.

As for `CN(C)CCCCCCN(C)C`, the IC50 was above 20 µM.

Turning to `CCOC(=O)Nc1ccc(SC[C@H]2CO[C@](Cn3ccnc3)(c3ccc(OC)cc3)O2)cc1`, the IC50 was above 20 µM.

`Cc1cccc(Oc2cnc(=O)[nH]c2)c1` [TOLIMIDONE]: the IC50 is above 20 µM.

As for `CC(C)[C@@]1(NC(=O)[C@@H]2C[C@@H]3c4cccc5[nH]cc(c45)C[C@H]3N(C)C2)O[C@@]2(O)[C@@H]3CCCN3C(=O)[C@H](C)N2C1=O`, the IC50 is above 20 µM.

Take `CC1=CC(=O)c2ccccc2C1=O` [MENADIONE]: the IC50 was above 20 µM.

Regarding `COCCOc1cnc(NS(=O)(=O)c2ccccc2)nc1` [GLYMIDINE], the IC50 was above 20 µM.

As to `COC(=O)[C@@H]1[C@H]2C[C@H]3c4[nH]c5ccccc5c4CCN3C[C@@H]2CC[C@@H]1O` [YOHIMBINE], the IC50 is above 20 µM.

In the case of `CNC(=O)[C@H]1O[C@@H](n2cnc3c(NCc4cccc(I)c4)ncnc32)[C@@H](O)[C@H]1O`, the IC50 was above 20 µM.

Consider `CC(=O)Oc1cc(C(C)C)c(OCCN(C)C)cc1C` [MOXISYLYTE], for which the IC50 was above 20 µM.

Turning to `CC(=O)OC(Cc1ccccc1)(c1ccccc1)C(C)CN1CCCC1` (stereo unspecified) [PYRROLIPHENE], the IC50 is above 20 µM.

In the case of `CCCC(CCC)C(=O)O` [VALPROIC ACID], the IC50 was above 20 µM.

In the case of `COc1cccc(CCc2ccccc2OCC(CN(C)C)OC(=O)CCC(=O)O)c1` (stereo unspecified) [SARPOGRELATE], the IC50 was above 20 µM.

As for `O=C1C(Cl)=C(Cl)C(=O)C(Cl)=C1Cl` [CHLORANIL], the IC50 was above 20 µM.

Consider `CNC(=O)NC(O)C(Cl)(Cl)Cl` (stereo unspecified) [MECLORALUREA], for which the IC50 is above 20 µM.

Take `Cn1c(=O)c2c(ncn2CCO)n(C)c1=O` [ETOFYLLINE]: the IC50 is above 20 µM.

Consider `Nc1ccc(S(=O)(=O)Nc2ccccn2)cc1` [SULFAPYRIDINE], for which the IC50 is above 20 µM.

As for `NC1CCN(c2c(F)cc3c(=O)c(C(=O)O)cn(C4CC4)c3c2Cl)C1` (stereo unspecified) [CLINAFLOXACIN], the IC50 is above 20 µM.

Turning to `c1cncc(C2=NCCC2)c1` [MYOSMINE], the IC50 is above 20 µM.

In the case of `COc1cc(OC)c2ccc(=O)oc2c1` [CITROPTEN], the IC50 is above 20 µM.

Take `NCCc1c[nH]c2ccc(O)cc12` [SEROTONIN]: the IC50 is above 20 µM.

In the case of `CCN[C@H]1CN(CCCOC)S(=O)(=O)c2sc(S(N)(=O)=O)cc21` [BRINZOLAMIDE], the IC50 was above 20 µM.

For the molecule `CCNC(=O)C[C@H]1N=C(c2ccc(Cl)cc2)c2cc(OC)ccc2-n2c(C)nnc21`, the IC50 was above 20 µM.

Regarding `COP(=O)(c1cc(C)cc(/C=C/C#N)c1)c1c(C(N)=O)[nH]c2ccc(Cl)cc12` (stereo unspecified), the IC50 is above 20 µM.

In the case of `O=c1[nH]c(=O)n(C2CCCO2)cc1F` (stereo unspecified) [TEGAFUR], the IC50 is above 20 µM.

On to `COCc1cccc(C[C@H](O)/C=C/[C@H]2[C@H](O)CC(=O)[C@@H]2CCSCCCC(=O)OC)c1` [RIVENPROST], for which the IC50 is above 20 µM.

Turning to `COC(=O)c1cnc2n1CCc1ccccc1C2=C1CCN(CCc2ccc(OCc3ccc4ccccc4n3)cc2)CC1`, the IC50 was above 20 µM.

For `CCC1(C)CC(=O)NC1=O` (stereo unspecified) [ETHOSUXIMIDE], the IC50 is above 20 µM.

Consider `Cc1cc(O)c2c(c1)C(=O)c1cc(O)cc(O)c1C2=O` [EMODIN], for which the IC50 is above 20 µM.
